From article PMC9138090, “Study on the Neuroprotective, Radical-Scavenging and MAO-B Inhibiting Properties of New Benzimidazole Arylhydrazones as Potential Multi-Target Drugs for the Treatment of Parkinson’s Disease” (Antioxidants, 2022) come the findings set out here.

Entries after “also recorded” stand apart in the source; their conditions may differ.

For data set [1], the system named is rat brain synaptosomes. Briefly: GSH level in isolated synaptosomes, toxicity evaluation. The class given is cell-based. The conditions noted are these: concentrations < 250 µM (1 to 250 µM tested). As for the experimental part:
Synaptosomes were prepared from brains of adult male Wistar rats. The brains were homogenized in 10 volume of cold buffer 1, containing 5 mM HEPES and 0.32 M sucrose (pH = 7.4). The brain homogenate was centrifuged twice at 1000× g for 5 min at 4 °C. The supernatant was collected and centrifuged 3 times at 10,000× g for 20 min at 4 °C. The pellet was re-suspended in ice-cold buffer 1. The synaptosomes were isolated by using Percoll reagent to prepare the gradient. Synaptosomes were re-suspended and incubated in buffer 2, containing 290 mM NaCl, 0.95 mM MgCl2 × 6H2O, 10 mM KCl, 2.4 mM CaCl2 × H2O, 2.1 mM NaH2PO4, 44 mM HEPES, and 13 mM D-glucose. Incubations were performed in a 5% CO2 + 95% O2 atmosphere. The content of synaptosomal protein was determined according to the method of Lowry et al. using bovine serum albumin as a standard.
Following treatment with the tested compounds, the glutathione levels were determined using Ellman reagent (DTNB), which forms color complexes with the SH group at pH = 8, with maximum absorbance at 412 nm. The synaptosomes were centrifuged at 500× g for 1 min and the sediment was used to measure GSH level. The sediment was precipitated with 5% TCA, then centrifuged for 10 min at 4000× g and the GSH level in the supernatant was measured using DTNB spectrophotometrically at 412 nm. The biochemical parameters were determined by spectrophotometric methods using a Spectro UV-VIS Split spectrophotometer (LaboMed.Inc, Los Angeles, CA, USA).
The low toxicity and substantial neuroprotective properties shown by some of the potential drug candidates in human neuroblastoma SH-SY5Y cells directed the experimental work to be elaborated on a different cellular in vitro model using freshly isolated rat brain synaptosomes for the evaluation of the protective effects and toxicity of selected promising compounds [56]. The rat brain synaptosomes represent a terminal part of the axons and contain synaptic vesicles, mitochondria, lysosomes, parts of the cell membrane, neurotransmitters, which diffuse across the synaptic cleft. Besides the presynaptic membrane, a part of postsynaptic membrane with the postsynaptic density is often attached to the nerve ending. In their experiments, Student and Edwards examined the subcellular localization of the A and B forms of MAO in rat brain. […] The authors conclude from the data that MAO-B activity is, indeed, associated with synaptosomes and may be non-uniformly located among different populations of synaptic endings. The functional-metabolic status of the synaptosomes was evaluated by measuring the synaptosomal viability (MTT assay) and the levels of reduced gluthathione (GSH) (Figure 2). […]

Data set [2] addresses T1, human recombinant MAO-B (hMAO-B) enzyme (Homo sapiens, UniProt P27338).
T1 construct: purchased Invitrogen, USA
T1 sequence (P27338 1-520): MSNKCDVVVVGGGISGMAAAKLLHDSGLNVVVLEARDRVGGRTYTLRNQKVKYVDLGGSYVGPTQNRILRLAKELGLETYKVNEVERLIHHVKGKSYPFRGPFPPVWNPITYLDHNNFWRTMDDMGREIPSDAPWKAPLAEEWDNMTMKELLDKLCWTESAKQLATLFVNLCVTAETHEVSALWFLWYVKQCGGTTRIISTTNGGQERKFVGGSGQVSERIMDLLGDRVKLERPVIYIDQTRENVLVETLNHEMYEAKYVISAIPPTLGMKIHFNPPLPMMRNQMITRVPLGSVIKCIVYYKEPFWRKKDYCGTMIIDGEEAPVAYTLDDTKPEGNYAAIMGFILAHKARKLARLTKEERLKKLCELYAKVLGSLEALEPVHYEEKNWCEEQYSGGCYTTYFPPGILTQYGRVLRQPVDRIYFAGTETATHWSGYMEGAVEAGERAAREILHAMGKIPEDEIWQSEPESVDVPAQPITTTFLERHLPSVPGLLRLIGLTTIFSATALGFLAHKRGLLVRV
Briefly: hMAO-B activity, Amplex UltraRed fluorometric method. The class given is biochemical. The conditions noted are these: 1 µM. How it is done: The effects of the test compounds on human recombinant MAO-B (hMAO-B) enzyme were studied by the Amplex UltraRed reagent (Sigma-Aldrich Chemie GmbH) fluorometric method with small modifications. The working solutions of the compounds, reagents, hMAO-B, and reaction buffers were prepared according to the producer’s instructions. The tyramine hydrochloride was used as a substrate. The reaction mixture contained a stock solution of Amplex Red (10 mM in dimethyl sulfoxide), the reaction buffer (0.05 M sodium phosphate) at pH 7.4, and the storage solution of horseradish peroxidase (10 U/mL). There were pure MAO-B working solutions in the reaction buffer and MAO-B working solution containing hydrogen peroxide as controls. The final concentration of the test compounds in the well was 1 μM. The compounds together with hMAO-B were embedded in a 96-well plate (8 wells for each compound), and then the plate was incubated for 30 min (dark, at 37 °C). Thereafter, the reaction was initiated by 50 μL Mix Solution: Amplex®Red reagent, horseradish peroxidase, and tyramine as an enzyme substrate in the reaction buffer. The fluorescence was measured every 30 min at 0, 30, 60, 90, 120, and 150 min), in dark, while shaking the reaction mixture at constant temperature of 37 °C. The fluorimetric measurements were assessed using a Synergy 2 Microplate Reader.
Monoamine oxidase B catalyzes dopamine metabolism and oxidation leading to the formation of reactive oxygen species and reactive quinones, which provoke dopamine neurotoxicity and neurodegeneration. In the next experiments, the compounds showing the best safety profile and the most promising neuroprotective activity (3d, 3e, 3h, 3i, 3m, 3n, 3p) were evaluated for their potential inhibitory activity on hMAOB. Selegiline and rasagiline as potent MAO-B inhibitors were used as standard compounds for comparison.

In the case of `O=C(CCn1c(=S)n(CCC(=O)NN=Cc2ccccc2O)c2ccccc21)NN=Cc1ccccc1O` [3e, 3,3′-(2-Thioxo-1H-benzo[d]imidazole-1,3(2H)-diyl)bis(N′-(2-hydroxybenzylidene)propanehydrazide)], the “effect on level of GSH in synaptosomes” value in data set [1] is “did not change”. The “inhibitory effect on hMAOB activity (in words)” value (shortened to “inhibitory effect”) in data set [2] was “statistically significant MAO-B inhibitory effects”.
In the case of `O=C(CCn1c(=S)n(CCC(=O)NN=Cc2cccc(O)c2O)c2ccccc21)NN=Cc1cccc(O)c1O` [3h, 3,3′-(2-Thioxo-1H-benzo[d]imidazole-1,3(2H)-diyl)bis(N′-(2,3-dihydroxybenzylidene)propanehydrazide)], the “effect on level of GSH in synaptosomes” value in data set [1] is reported as “did not significantly reduce; also recorded: did not change”. In addition, the “inhibitory effect” value in data set [2] was “statistically significant MAO-B inhibitory effects; also recorded: most potent with an hMAO-B inhibitory activity similar to selegiline and rasagiline”.
As to `O=C(CCn1c(=S)n(CCC(=O)NN=Cc2ccc(O)cc2O)c2ccccc21)NN=Cc1ccc(O)cc1O` [3i, 3,3′-(2-Thioxo-1H-benzo[d]imidazole-1,3(2H)-diyl)bis(N′-(2,4-dihydroxybenzylidene)propanehydrazide)], in data set [1], the “effect on level of GSH in synaptosomes” value is on record as “did not significantly reduce; also recorded: did not change”. For the same compound, the “inhibitory effect” value in data set [2] is “statistically significant MAO-B inhibitory effects”.
With `COc1ccc(C=NNC(=O)CCn2c(=S)n(CCC(=O)NN=Cc3ccc(OC)cc3O)c3ccccc32)c(O)c1` [3m, 3,3′-(2-Thioxo-1H-benzo[d]imidazole-1,3(2H)-diyl)bis(N′-(2-hydroxy-4-methoxybenzylidene)propanehydrazide)], the “effect on level of GSH in synaptosomes” value in data set [1] is on record as “did not change”. Further, the “inhibitory effect” value in data set [2] is on record as “statistically significant MAO-B inhibitory effects”.
